As usually defined, the IC50 is the concentration that inhibits the measured activity by half. A low value points to greater potency in that assay. A word on the Ki: it is the equilibrium dissociation constant of an inhibitor or competing ligand from its target. A higher Ki goes with weaker binding.

The values below come from article PMC6458156, “Improved predictions of time-dependent drug-drug interactions by determination of cytosolic drug concentrations” (Scientific Reports, 2019).

The conditions of data set [1]: blood-to-plasma ratio; Predicted within/obtained from Simcyp; ref Simcyp (Simcyp Limited, UK); cited from earlier work.
Data set [2] has as its target T1, CYP3A (Homo sapiens, UniProt P08684). The data set is described as follows: in vitro. As to conditions: microsomes, pH 7.4.
The conditions of data set [3]: cited from earlier work.
The target in data set [4] is T1, CYP3A. The conditions noted are these: probe drugs midazolam and simvastatin, in vivo; ref University of Washington Drug Interaction Database; cited from earlier work.
Data set [5] in a line: Non-specific binding of drugs in human liver microsomes (fu,mic), rapid equilibrium dialysis. Format: in vitro ADME. The conditions noted are these: unbound drug fraction in the microsomal mixture, inhibitor 1 µM, 37 °C. On the technique in general: Liver microsomes are vesicles of endoplasmic reticulum, rich in cytochrome P450 enzymes.
Experimental: The unbound fraction of the inhibitors in the microsomes (fu,mic) was determined using two-chambered Rapid Equilibrium Dialysis (RED) devices (Thermo Fisher Scientific Inc., Rockford, IL). Triplicate mixtures (200 µl) of 6–8 inhibitors at a final concentration of 1 µM and HLM (0.1 or 0.5 mg/ml) were added to one chamber, and Hank’s buffered salt solution (HBSS) (350 µl) to the other chamber. The dialysis units were incubated at 37 °C for 4 h on an orbital shaker. At the end of the incubation, 20 μl of each sample from the homogenate and buffer chambers was transferred to a 96-well plate. Blank buffer or blank microsomes (20 μl) were added to the samples from the homogenate or buffer chambers, respectively, to yield identical matrices before further sample handling and analysis. […] Here, drug-HLM mixture (100 µl) was transferred to an empty well of the dialysis unit and incubated for the same time. The remaining HLM solution (without drug) was kept as a blank sample. The mass balances calculated at the end of the experiment were consistently >80%.
The nature of data set [6]: Intracellular drug accumulation ratio (Kp) and intracellular bioavailability (Fic) in cryopreserved human hepatocytes. Format: in vitro ADME. As to conditions: human, cryopreserved human hepatocytes in suspension; cellular drug accumulation ratio; 0.5 µM drug; no chloroquine; geometrical mean ± SD of triplicates.
Experimental: (§1) Intracellular drug binding (fu,cell, fraction of unbound drug inside cells) and intracellular drug accumulation (Kp) were measured in two separate experiments for all inhibitors[8], as described in the following sections. Intracellular drug bioavailability (Fic) expresses the ratio between the intracellular unbound drug concentration (Cu,cell) to the drug concentration in the medium (Cmedium).
(§2) Cryopreserved human hepatocytes were thawed as described above and suspended to 1 × 10^6 cell/ml in HBSS (viability 85%). […] The plates were incubated on an orbital shaker (300 rpm) at 37 °C for three time points (15, 30, 45 min), to ensure sufficient time to reach steady-state. At the end of the incubation, the plates were centrifuged for 5 min at 100 × g, and medium samples (20 µl) were collected from the supernatant (Cmedium). Drug uptake was terminated by addition of ice-cold PBS followed by a washing step. […] The total amount of drug in the cells (Acell) was calculated based on the determined drug concentrations.
(§3) The protein concentration in the cell samples was measured as described above and the cell volume (Vcell) calculated. Finally, the Kp was calculated for each drug as the ratio between the total drug concentration in the cell vs. the drug concentration in the medium (Cmedium):4 Kp=Acell/Vcell/Cmedium
Data set [7] has as its system human hepatocytes. The description is as above. Format: in vitro ADME. The conditions noted are these: intracellular bioavailability = fu,cell × Kp; human hepatocytes.
Experimental: as §1, §2, §3
Data set [8] deals with T1, CYP3A. The data set is described as follows: in vitro.
A short description of data set [9]: Intracellular fraction of unbound drug (fu,cell), dialysis of human hepatocyte homogenate. The conditions noted are these: homogenate of cryopreserved human hepatocytes, geometrical mean ± SD of triplicates. Format: in vitro ADME.
Experimental: Cryopreserved human hepatocytes were thawed at 37 °C and transferred to phosphate-buffered saline (PBS). […] The fu,cell values were measured using two-chambered Rapid Equilibrium Dialysis (RED) devices. […] At the end of the incubation, 20 μl of each sample from the homogenate and buffer chambers was transferred to a 96-well plate. […] For the stability test, the cell homogenate and drug mixture (100 µl) was transferred to an empty well of the dialysis unit. […] After incubation, 10-fold and 100-fold dilutions of cell homogenate were prepared on 96-well plates and a mixture of acetonitrile/water (60:40) with internal standard (warfarin) was added to the samples before further sample handling and analysis, which was performed as described above. The fu,hom values were calculated as the ratio of the concentration of the drug in the HBSS chamber (Cbuffer) vs. the cell homogenate chamber (Chom). The protein concentration in the cell homogenate was measured using a BCA Protein Assay Reagent Kit (Pierce Biotechnology, Rockford, IL), according to the manufacturer’s instruction. The total cell volume in each well for 10 × 10^6 primary human hepatocytes was estimated from the protein concentration.
For data set [10], the system named is human hepatocytes. Nature of the data set: Cytosolic drug accumulation ratio (Kpcyto) and cytosolic bioavailability (Fcyto) in human hepatocytes with chloroquine. Format: in vitro ADME.

Molecules are shown by their SMILES. Like-named read-outs stand apart in the source and are kept apart here.

T1 sequence (P08684 2-503): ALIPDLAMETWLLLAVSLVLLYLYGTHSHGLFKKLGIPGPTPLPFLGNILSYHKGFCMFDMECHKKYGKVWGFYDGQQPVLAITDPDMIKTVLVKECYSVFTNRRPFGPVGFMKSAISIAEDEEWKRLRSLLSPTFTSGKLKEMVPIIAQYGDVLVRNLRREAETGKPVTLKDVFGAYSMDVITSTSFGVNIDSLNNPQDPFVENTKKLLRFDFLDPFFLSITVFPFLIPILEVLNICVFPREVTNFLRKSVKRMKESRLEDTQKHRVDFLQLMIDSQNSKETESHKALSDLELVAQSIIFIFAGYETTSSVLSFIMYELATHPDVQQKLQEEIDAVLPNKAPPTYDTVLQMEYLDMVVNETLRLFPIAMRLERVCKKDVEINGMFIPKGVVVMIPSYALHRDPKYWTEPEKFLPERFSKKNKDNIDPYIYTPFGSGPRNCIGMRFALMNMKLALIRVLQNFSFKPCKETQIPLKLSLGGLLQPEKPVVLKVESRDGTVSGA

As for `CC[C@H]1OC(=O)[C@H](C)[C@@H](O[C@H]2C[C@@](C)(OC)[C@@H](O)[C@H](C)O2)[C@H](C)[C@@H](O[C@@H]2O[C@H](C)C[C@H](N(C)C)[C@H]2O)[C@](C)(O)C[C@@H](C)/C(=N\OCOCCOC)[C@H](C)[C@@H](O)[C@]1(C)O` [Roxithromycin], in [1], the B/P is recorded as 0.70. Moreover, inhibition in [2] was half-maximal at 82.4 ± 44.9 µM (IC50 at 5 min). Further, the affinity in data set [2], expressed as Ki at 5 min, was 26.2 µM. The ka in data set [3] (absorption rate constant, ref 5,17 (crizotinib), 19-21 (erythromycin), 22-25 (imatinib), 20,32,33 (roxithromycin), 4,34 (telithromycin), 35-40 (verapamil)) is 4.96 h⁻¹. In addition, the “Cave,ss” value in [3] (average plasma concentration at steady-state, 300 mg qd) was 5,413 ng/ml. Also, in data set [3] (fraction absorbed, ref 5,17 (crizotinib), 6,18 (diltiazem), 19-21 (erythromycin), 22-25 (imatinib), 26-28 (nefazodone), 29,30 (nilotinib), 29,31 (pazopanib), 20,32,33 (roxithromycin), 4,34 (telithromycin)), the Fa was 0.86. Further, in [3] (maximum plasma concentration at steady-state, 300 mg qd), the “Cmax,ss” value is reported as 10,900 ng/ml. In addition, the “class of CYP3A inhibitor by increase in AUC of the probe drug” value in [4] is on record as “weak (weak inhibitors causing a ≥1.25 but <2-fold increase)”. Besides, the fraction unbound at 4 h, 1 µM worked out at 0.637 in data set [5] (HLM 0.1 mg/ml, read-out: fu,mic at 0.1 mg/ml) and 0.612 in [5] (HLM 0.5 mg/ml, read-out: fu,mic at 0.5 mg/ml). The Kp at 0.5 µM in data set [6] was 5.4 ± 0.3. In addition, in data set [7], the Fic came out at 0.13 ± 0.01. In addition, the KI (inactivation) was 31.4 ± 16.5 µM in data set [8] (pH 7.4, KI, inactivation constant, HLM 0.5 mg/ml preincubation 0-30 min, midazolam 20 µM, mean ± SD of triplicates) and 19.2 µM in data set [8] (pH 7.4, KI,u, calculated as fu,mic at 0.5 mg/ml × KI). In [9], this molecule yielded a fraction unbound at 4 h of 0.0241 ± 0.0004. The “Kp compared with Kpcyto” value in [10] (absence vs presence of chloroquine, p ≤ 0.05 in Student’s t-test where called significant) is “significantly larger”. In data set [10] (cellular drug accumulation ratio in the presence of chloroquine (100 µM, 45 min), 0.5 µM drug), the Kpcyto amounted to 3.3 ± 0.75. The Fcyto in data set [10] (cytosolic bioavailability = fu,cell × Kpcyto, human hepatocytes) is 0.08 ± 0.02. For the same molecule, in [10] (ratio of intracellular to cytosolic bioavailability, human hepatocytes), the Fic/Fcyto was 1.61.
